Results published in ChEMBL document CHEMBL1157539, “Thousands of chemical starting points for antimalarial lead identification” (Nature, 2010).

Tested on: Plasmodium falciparum
Assay: GSK_TCMDC: Inhibition of Plasmodium falciparum 3D7 in whole erythrocytes, using parasite LDH activity as an index of growth.
Type: functional, organism-based
Details: Plasmodium falciparum, 3D7

Compound | XC50
COc1ccc(Nc2nc(N/N=C/c3ccc(-c4ccc([N+](=O)[O-])cc4)o3)nc(Nc3ccccc3)n2)cc1 | 761 nM
Cc1ccc(Nc2nc(N/N=C/c3ccccc3[N+](=O)[O-])nc(Nc3ccc([N+](=O)[O-])cc3)n2)cc1C | 692 nM
CC(C)N(Cc1ccc(-c2ccc(C(F)(F)F)cc2)cc1)C(=O)Cn1c(CCc2cccc(F)c2F)cc(=O)c2ccc(CCCN3CCCCC3)cc21 | 736 nM
O=C(Cn1c(CCc2cccc(F)c2F)cc(=O)c2ccccc21)N(CCN1CCCCC1)Cc1ccc(-c2ccc(C(F)(F)F)cc2)cc1 | 764 nM
Nc1nc(N)c2c(Oc3cccc(Cl)c3)cccc2n1 | 471 nM
O=C(/C=C/c1ccc(Cl)c(Cl)c1)NCCCCCN1CCCN(C(=O)Nc2ccc(Cl)c(Cl)c2)CC1 | 864 nM
Cc1cnccc1/C=C/c1cccc(OCCCN2CCc3ccc(S(C)(=O)=O)cc3CC2)c1 | 615 nM
Cc1ccc(NC(=O)Nc2cccc(Cl)c2)cc1-c1ccc(C(=O)Nc2ccncc2)cc1 | 738 nM
FC(F)(F)c1ccc2[nH]c(-c3ccc(-c4cccc(CNCCc5cccnc5)c4)s3)nc2c1 | 170 nM
O=C(NC1CCN(Cc2ccc3c(c2)OCCO3)CC1)c1ccc(-c2cccc(Cl)c2)s1 | 1910 nM
CCCCC(O)c1cc(O)c2c(c1)OC(C)(C)CC2C1=CCN(Cc2ccc3ccccc3c2)CC1 (stereo unspecified) | 970 nM
CC(C)COc1ccc(Cl)cc1Cc1ccc(-c2nc3ccc(F)c(F)c3[nH]2)o1 | 942 nM
c1ccc(Oc2ccc(Nc3ccnc4ccc(-c5ccco5)cc34)cc2)cc1 | 928 nM
COc1ccc(N2CCN(CCCCNC(=O)c3ccc(NC(=O)c4cc(C(F)(F)F)cc(C(F)(F)F)c4)cc3)CC2)cc1OC | 221 nM
N=C1c2ccccc2CN1CC(=O)c1ccc(Cl)c(Cl)c1 | 728 nM
N=C(N)NCCCCN(Cc1ccccc1)c1ccccc1 | 745 nM
O=C(Nc1cccc(C(F)(F)F)c1)Nc1ccc2nonc2c1 | 849 nM
CCCCCCN1CCCN(Cc2cccc(C(=O)Nc3ccc(C(C)(C)C)cc3)c2)CC1 | 943 nM
CN(C)CCOc1cc(NC(=O)Nc2ccc3c(c2)CCCC3=O)ccc1I | 939 nM
Cc1noc(C)c1-c1ccc2c(Nc3nccc4ccccc34)c(C(N)=O)cnc2c1 | 895 nM
COc1ccc(C=NN=c2cc(C)[nH]c3ccccc23)cc1OC | 859 nM
CN1CCN(C(C(=O)NCc2cc(Cl)cc(Cl)c2)c2ccc(Nc3cccc(C(F)(F)F)c3)cc2)CC1 (stereo unspecified) | 1120 nM
COc1ccc2nccc([C@@H](O)CN3CCC(NC(=O)c4ccc(CN5CCN(c6cccc(C)c6)CC5C)cc4)CC3)c2c1 (stereo partly specified) | 211 nM
CCCCCCc1c(C)nc2cc(OC)ccc2c1O | 119 nM

Compound | XC50
Cc1nc(C)c(-c2ccc(Oc3ccc(Cl)cc3)c(Cl)c2)c(O)c1Br | 495 nM
CCc1ccccc1N=C1c2c(cccc2[N+](=O)[O-])C(=O)C1C(C)=O (stereo unspecified) | 90.9 nM
COc1ccc(NC(=O)[C@H](CC(C)C)Nc2cc(C)nc(NCCc3ccccc3)n2)cc1 | 888 nM
CCCc1cc(OC)c(CC2c3cc(O)c(Cl)cc3C(c3ccccc3)CN2C)cc1OC (stereo unspecified) | 430 nM
COc1cccc(C(=O)Nc2ccc(Nc3nc(C)cc(N4CCCCC4)n3)cc2)c1OC | 1020 nM
Cc1cc(CN2CCC(N3CC(c4ccccc4)(c4ccccc4)OCC3=O)C2)ccc1O (stereo unspecified) | 1080 nM
CCNc1cc(C(=O)N[C@@H](Cc2ccccc2)[C@H](O)CNC2(CC)CC2)cc(N2CCCCS2(=O)=O)c1 | 1610 nM
CC[C@H](C)[C@@H](C(=O)N1CCOCC1)N1CC[C@H](NS(=O)(=O)CC(C)(C)c2ccc(Cl)cc2)C1=O | 550 nM
O=C(NCc1ccc(Cl)c(Cl)c1)c1ccc(-c2nc3cc(F)c(F)cc3[nH]2)cc1 | 1050 nM
Cc1cc(C)cc(OCC(O)CN(Cc2cc(Cl)cc(Cl)c2)C(=O)Nc2ccc([N+](=O)[O-])cc2)c1 (stereo unspecified) | 804 nM
COc1ccc2nccc([C@@H](O)CN3CCC(NCc4cc5cc(C)ccc5s4)CC3)c2c1 | 636 nM
CN1CCN(C(=O)CN2CCC3(CCC2=O)NC(=O)c2ccccc2O3)CC1 (stereo unspecified) | 213 nM
COc1ccc(C2CC(c3cccs3)=NN2C(=O)COc2cccc3c2CCCC3O)cc1OC (stereo unspecified) | 1150 nM
Cn1c(NC(=O)C2CCC(CNC(=O)c3ccc(O)c(-c4ccc(Cl)c(Cl)c4)c3)CC2)nc2ccccc21 (stereo unspecified) | 654 nM
CCCCCn1c(Sc2ccc(C#N)c([N+](=O)[O-])c2)nnc1-c1ccccc1 | 860 nM
COc1ccccc1CCNc1nc(C)cc(N[C@@H](CC(C)C)C(=O)NCCc2ccccc2)n1 | 718 nM
CCCNC(=O)Nc1cc2cc(-c3ccc(CN4CCCC4)cc3)ccc2n2c(C)nnc12 | 1500 nM
NC1=NC(c2ccccc2)N(c2ccccc2)C(N)=N1 (stereo unspecified) | 294 nM
COc1cc2nc(N3CCC(NC(=O)c4cccc(N(C)C)c4)CC3)nc(N)c2cc1OC | 614 nM
O=S(=O)(NC1CCN(c2ccnc3cc(Cl)ccc23)C1)c1ccc(C(F)(F)F)cc1 (stereo unspecified) | 298 nM
Cc1nc(N)nc(N)c1OCc1ccc(Cl)c(Cl)c1 | 131 nM
c1ccc2c(c1)ncc1c3ccccc3[nH]c21 | 866 nM
CC(C)(C)NC(=O)COC(=O)c1c2c(nc3ccccc13)C(=Cc1ccc3c(c1)OCO3)CCC2 | 735 nM
O=C(/C=C/c1ccc(Cl)c(Cl)c1)NCCCCCN1CCCC(CNS(=O)(=O)c2ccc(F)cc2)C1 (stereo unspecified) | 1160 nM

Compound | XC50
Cc1nc2c(Nc3nc(-c4ccncc4)cs3)ncnc2n1-c1ccccc1Cl | 176 nM
COc1cccc(-c2nc3c(N4CCN(c5ccncc5)CC4)cccc3n2CC2CCCCCN2)n1 (stereo unspecified) | 1060 nM
COc1ccc(CN2CCC(CNCc3cccc(-c4ccccc4)c3)CC2)cc1 | 236 nM
COC(=O)c1ccc(Nc2nccc(Nc3ccc(Oc4ccccc4)cc3)n2)cc1 | 1020 nM
CCOc1ccc(-c2n[nH]c(C(F)(F)F)c2-c2ccccc2OC)c(O)c1 | 1140 nM
CCC(ON1C(N)=NC(N)=NC1(C)C)c1ccc(Cl)cc1 (stereo unspecified) | 3.2 nM
CCCNC[C@@H](O)[C@H](Cc1ccccc1)NC(=O)c1cc(NCC)cc(N2CCCC2=O)c1 | 760 nM
COc1ccc2nccc([C@@H](O)CN3CCC(NCCOc4ccc(F)cc4[N+](=O)[O-])CC3)c2c1 | 116 nM
Cn1cncc1C(=O)Nc1cccc(-c2ccc(-c3nc4ccccc4[nH]3)cc2)c1 | 854 nM
Cc1cccc2nc(-c3cccc(-c4ccc(NC(=O)c5ccc(=O)[nH]n5)cc4)c3)[nH]c12 | 857 nM
O=C(Nc1cccc(F)c1)N1CCC(CN2CCOC(c3ccccc3)(c3ccccc3)C2)CC1 | 198 nM
CCCCCCCc1c(C)nc2cccc(OC)c2c1O | 1130 nM
CC(C)c1ccc(CN(C)CCCCNC(=O)c2ccc(NC(=O)c3ccc(Cl)cc3)cc2)cc1 | 994 nM
Cc1cccc2nc(-c3cccc(-c4ccc(CNCc5cccc(N)c5)cc4)c3)[nH]c12 | 260 nM
Cc1cccc(C)c1/N=C1\NC(=S)N(c2cccc(Cl)c2)C12CCC(C(C)(C)C)CC2 (stereo unspecified) | 760 nM
COc1cc2nc(N3CCC(CNC(=O)c4ccc(-c5ccc(O)cc5)cc4)CC3)nc(N)c2cc1OC | 175 nM
N#Cc1ccc(-c2ccc(C(=O)NCCCCN3CCC(c4cc(Br)c5c(c4O)CCCC5)CC3)cc2)cc1 | 154 nM
Cc1c[nH]c2cc(/C=C/C(=O)NC3CCC(CCN4CCc5ccc(C#N)cc5CC4)CC3)ccc12 (stereo unspecified) | 801 nM
O=C(NC1CCN(Cc2ccccc2)CC1)c1ccc(CNC2CCN(Cc3ccccc3)CC2)cc1 | 872 nM
CC(C)N1CCN(C(CN2CCN(CCCOc3cccc4ccccc34)CC2)c2ccc(F)cc2)CC1 (stereo unspecified) | 879 nM
CCOc1ccc(C2CCN(CCCCNC(=O)c3ccc(NC(=O)c4ccc(Cl)cc4)cc3)CC2)c(Cl)c1 | 731 nM
COc1ccc(Cn2c(Nc3cccc(C(F)(F)F)c3)nc3cc(C(=O)NCCCN(C)C)ccc32)cc1Cl | 913 nM
C[C@@H](Oc1cc(-n2cnc3ccc(NC(=O)CCN4CCCCC4)cc32)sc1C(N)=O)c1ccccc1Cl | 991 nM
Nc1ncc(-c2ccsc2)cc1-c1nc2ccccc2[nH]1 | 851 nM

Compound | XC50
CC(C)CCN1CCCN(Cc2cccc(NC(=O)c3ccc(-c4ccccc4)cc3)c2)CC1 | 888 nM
Nc1nccc2ccc(-c3ccc4ncccc4c3)cc12 | 112 nM
Cc1c(CNCCCNc2nc3ccccc3[nH]2)[nH]c2cc(Cl)cc(Cl)c12 | 232 nM
CCNC(=O)N1CCc2ccc(Oc3nc(NCc4ccccc4OC)ncc3C)cc2CC1 | 1070 nM
CC[C@H]1CN2CC[C@@H]1C[C@H]2[C@H](O)c1cc(-c2ccc(F)cc2)nc2ccc(O)cc12 | 140 nM
Cn1ncc2ccc(Nc3nccc(-c4ccc5c(c4)c(N)nn5C)n3)cc21 | 648 nM
COc1ccc2nccc([C@@H](O)CN3CCC(NC(=O)Cn4nc(-c5ccc(C(F)(F)F)cc5)ccc4=O)CC3)c2c1 | 737 nM
Cn1c(=O)c2nc(-c3ccc(Cl)cc3)nnc2n(CCCC#N)c1=O | 153 nM
OC1(Cc2ccccc2)CCN(Cc2cccc(-c3c[nH]c4nc(NC5CCCC5)ncc34)c2)CC1 | 929 nM
COc1cccc(-c2cccc(NC(=O)C3CCN(Cc4ccc(O)cc4)CC3)c2)c1 | 1030 nM
Cc1cccc2nc(-c3cccc(-c4cccc(CNCCc5cccn5C)c4)c3)[nH]c12 | 733 nM
COc1cccc(C(=O)NCCc2cccc(Cl)c2)c1Oc1ccccc1 | 844 nM
CC(=O)N1N=C(c2[nH]c3ccc(Br)cc3c2C)OC1c1ccccc1 (stereo unspecified) | 777 nM
O=c1cc(NCCCNC2CCCc3c2cc(Cl)c(Cl)c3Cl)[nH]c2ccccc12 (stereo unspecified) | 276 nM
COc1ccc2ncc(Cl)c(CCN3CCC(NCc4ccc5c(n4)NC(=O)CO5)CC3)c2c1 | 470 nM
CN(C)C(CNC(=O)c1cc(-c2ccncc2)c(-c2ccc(Cl)c(O)c2)o1)c1ccccc1 (stereo unspecified) | 843 nM
COc1ccc2nccc([C@@H](O)CN3CCC(NCC(O)Cc4ccccc4)CC3)c2c1 (stereo partly specified) | 671 nM
CCOc1ncccc1CN1CCC(N2CCc3cc(NC(=O)c4ccco4)ccc32)C1 (stereo unspecified) | 758 nM
CN(C)C(CNC(=O)c1cc(-c2ccncc2)c(-c2ccc(NC(=O)Nc3cccc(Cl)c3)cc2)o1)c1ccccc1 (stereo unspecified) | 183 nM
O=[N+]([O-])c1ccc(C2=NN(S(=O)(=O)c3c(Cl)cc(Cl)cc3Cl)CCCC2)cc1 | 125 nM
Cc1cc(N2Cc3ccccc3C2)nc(Nc2ccc(S(=O)(=O)N3CCOCC3)cc2)n1 | 1110 nM
COc1cc2c(cc1C(F)(F)F)N(C(=O)Nc1cc(F)c(F)c(-c3cccnc3)c1)CC2 | 626 nM
Cc1cc(N(C)C)nc(Nc2ccc(NC(=O)c3c(F)cccc3Cl)cc2)n1 | 1090 nM
COc1cc(CCN(C)Cc2ccc(OC)c(OC)c2)ccc1NC(=O)c1cccc2c(O)c3cccc(F)c3nc12 | 203 nM
